Assay results taken from patent publication US20240360126A1, “PYRAZOLO[3,4-B]PYRIDINE COMPOUNDS FOR THE TREATMENT OF AUTOIMMUNE DISEASE” (Hoffmann-La Roche Inc., priority 2021, published 2024).

molecular target: T1, human TLR7 (Homo sapiens, UniProt Q9NYK1); experiment: HEK293-Blue-hTLR-7 cells assay; type: cell-based; conditions: HEK293-Blue-hTLR7 cells, R848 stimulation, 20 hrs; read-out: HEK/hTLR7 IC50
T1 construct: host or cells: HEK293 (HEK-Blue hTLR7)
T1 sequence (Q9NYK1 27-1049): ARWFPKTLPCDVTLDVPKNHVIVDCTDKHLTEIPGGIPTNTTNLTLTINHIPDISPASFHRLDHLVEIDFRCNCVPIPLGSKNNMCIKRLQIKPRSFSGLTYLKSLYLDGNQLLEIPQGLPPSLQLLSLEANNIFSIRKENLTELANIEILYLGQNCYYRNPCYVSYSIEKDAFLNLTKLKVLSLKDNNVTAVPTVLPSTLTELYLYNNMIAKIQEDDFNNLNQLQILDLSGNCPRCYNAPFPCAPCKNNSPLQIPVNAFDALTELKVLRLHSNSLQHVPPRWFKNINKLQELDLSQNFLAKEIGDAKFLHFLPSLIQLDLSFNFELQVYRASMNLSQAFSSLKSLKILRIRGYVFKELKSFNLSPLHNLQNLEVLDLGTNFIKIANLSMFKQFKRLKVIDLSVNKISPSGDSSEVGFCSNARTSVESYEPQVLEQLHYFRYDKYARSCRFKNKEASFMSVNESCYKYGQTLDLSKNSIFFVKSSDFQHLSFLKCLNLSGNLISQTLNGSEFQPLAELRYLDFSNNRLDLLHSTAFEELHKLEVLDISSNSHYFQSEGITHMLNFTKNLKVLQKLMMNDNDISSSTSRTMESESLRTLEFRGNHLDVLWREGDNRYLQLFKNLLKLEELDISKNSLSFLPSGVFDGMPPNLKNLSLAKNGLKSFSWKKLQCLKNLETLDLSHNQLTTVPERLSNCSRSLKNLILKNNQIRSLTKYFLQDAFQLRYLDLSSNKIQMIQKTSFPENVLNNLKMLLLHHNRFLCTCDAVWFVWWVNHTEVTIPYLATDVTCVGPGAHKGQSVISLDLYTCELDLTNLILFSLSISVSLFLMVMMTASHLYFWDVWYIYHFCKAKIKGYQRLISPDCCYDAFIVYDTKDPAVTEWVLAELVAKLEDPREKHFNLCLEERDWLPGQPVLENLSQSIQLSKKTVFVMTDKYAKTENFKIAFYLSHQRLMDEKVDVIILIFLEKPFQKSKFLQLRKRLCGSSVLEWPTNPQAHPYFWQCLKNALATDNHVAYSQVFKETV
Description: A stable HEK293-Blue-hTLR-7 cell line was purchased from InvivoGen (Cat. #: hkb-htlr7, San Diego, California, USA). These cells were originally designed for studying the stimulation of human TLR7 by monitoring the activation of NF-κB. A SEAP (secreted embryonic alkaline phosphatase) reporter gene was placed under the control of the IFN-β minimal promoter fused to five NF-κB and AP-1-binding sites. The SEAP was induced by activating NF-κB and AP-1 via stimulating HEK-Blue hTLR7 cells with TLR7 ligands. Therefore the reporter expression was declined by TLR7 antagonist under the stimulation of a ligand, such as R848 (Resiquimod), for incubation of 20 hrs. The cell culture supernatant SEAP reporter activity was determined using QUANTI-Blue™ kit (Cat. #: rep-qbl, Invivogen, San Diego, Ca, USA) at a wavelength of 640 nm, a detection medium that turns purple or blue in the presence of alkaline phosphatase.
HEK293-Blue-hTLR7 cells were incubated at a density of 250,000-450,000 cells/mL in a volume of 170 μL in a 96-well plate in Dulbecco's Modified Eagle's medium (DMEM) containing 4.5 g/L glucose, 50 U/mL penicillin, […] streptomycin, […] Normocin, […] L-glutamine, 10% […] heat-inactivated fetal bovine serum with addition of 20 μL test compound in a serial dilution in the presence of final DMSO at 1% and 10 μL of 20 μM R848 in above DMEM, perform incubation under 37° C. in a CO2 incubator for 20 hrs. Then 20 μL of the supernatant from each well was incubated with 180 μL Quanti-blue substrate solution at 37° C. for 2 hrs and the absorbance was read at […] using a spectrophotometer. The signaling pathway that TLR7 activation leads to downstream NF-κB activation has been widely accepted, and therefore similar reporter assay was modified for evaluating TLR7 antagonist.

Compound | IC50
Cc1cc(N2CCC(c3ccc(N4CCNCC4)nc3C)CC2)c2cnn(C)c2n1 [Example 10, 1,6-dimethyl-4-[4-(2-methyl-6-piperazin-1-yl-3-pyridyl)-1-piperidyl]pyrazolo[3,4-b]pyridine] | 39 nM
Cc1cc(N2CCC(c3cc(C)c(N4CCNCC4)cn3)CC2)c2cnn(C)c2n1 [Example 9, 1,6-dimethyl-4-[4-(4-methyl-5-piperazin-1-yl-2-pyridyl)-1-piperidyl]pyrazolo[3,4-b]pyridine] | 39 nM
Cc1cc(N2CCC(c3cnc(N4CCNCC4)cc3C)[C@H](C)C2)c2cnn(C)c2n1 (single isomer, unassigned) [Example 20, 1,6-dimethyl-4-[cis-3-methyl-4-(4-methyl-6-piperazin-1-yl-3-pyridyl)-1-piperidyl]pyrazolo[3,4-b]pyridine] | 50 nM
CO[C@@H]1CN(c2ccc([C@H]3CCN(c4cc(C)nc5c4cnn5C)C[C@@H]3C)nc2)C[C@H]1N [Example 36, (3R,4R)-1-[6-[(3R,4S)-1-(1,6-dimethylpyrazolo[3,4-b]pyridin-4-yl)-3-methyl-4-piperidyl]-3-pyridyl]-4-methoxy-pyrrolidin-3-amine] | 18 nM
Cc1cc(N2CC[C@H](c3ccc(N4CC(C)(N)C4)cn3)[C@@H](C)C2)c2cnn(C)c2n1 [Example 43, 1-[6-[(3R,4S)-1-(1,6-dimethylpyrazolo[3,4-b]pyridin-4-yl)-3-methyl-4-piperidyl]-3-pyridyl]-3-methyl-azetidin-3-amine] | 16 nM
Cc1cc(N2CCNCC2)ncc1C1CCN(c2ccnc3c2cnn3C)CC1 [Example 6, 1-methyl-4-[4-(4-methyl-6-piperazin-1-yl-3-pyridyl)-1-piperidyl]pyrazolo[3,4-b]pyridine] | 7 nM
Cc1cc(N2CC[C@H](c3ccc(N4CCOC[C@@H](N)C4)cn3)[C@@H](C)C2)c2cnn(C)c2n1 [Example 40, (6S)-4-[6-[(3R,4S)-1-(1,6-dimethylpyrazolo[3,4-b]pyridin-4-yl)-3-methyl-4-piperidyl]-3-pyridyl]-1,4-oxazepan-6-amine] | 9 nM
Cc1cc(N2CC[C@@H](c3ncc(N4CC5(CNCCO5)C4)cc3C)[C@H](C)C2)c2cnn(C)c2n1 [Example 27, 2-[6-[(3S,4R)-1-(1,6-dimethylpyrazolo[3,4-b]pyridin-4-yl)-3-methyl-4-piperidyl]-5-methyl-3-pyridyl]-5-oxa-2,8-diazaspiro[3.5]nonane] | 9 nM
Cc1cc(N2CC[C@H](c3ccc(N4CCNCC4)cn3)[C@@H](C)C2)c2cnn(C)c2n1 [Example 35, 1,6-dimethyl-4-[(3R,4S)-3-methyl-4-(5-piperazin-1-yl-2-pyridyl)-1-piperidyl]pyrazolo[3,4-b]pyridine] | 6 nM
COC[C@H]1CN(c2ccc([C@H]3CCN(c4cc(C)nc5c4cnn5C)C[C@@H]3C)nc2)CCN1 [Example 37, 4-[(3R,4S)-4-[5-[(3R)-3-(methoxymethyl)piperazin-1-yl]-2-pyridyl]-3-methyl-1-piperidyl]-1,6-dimethyl-pyrazolo[3,4-b]pyridine] | 9 nM
COC[C@H]1CN(c2cnc([C@@H]3CCN(c4cc(C)nc5c4cnn5C)C[C@H]3C)c(C)c2)CCN1 [Example 29, 4-[(3S,4R)-4-[5-[(3R)-3-(methoxymethyl)piperazin-1-yl]-3-methyl-2-pyridyl]-3-methyl-1-piperidyl]-1,6-dimethyl-pyrazolo[3,4-b]pyridine] | 5 nM
COc1cc(N2CCNCC2)cnc1C1CCN(c2cc(C)nc3c2cnn3C)CC1 [Example 14, 4-[4-(3-methoxy-5-piperazin-1-yl-2-pyridyl)-1-piperidyl]-1,6-dimethyl-pyrazolo[3,4-b]pyridine] | 12 nM
CO[C@H]1CN(c2cnc(C3CCN(c4cc(C)nc5c4cnn5C)CC3)c(C)c2)CC[C@@H]1N [Example 17, (3S,4S)-1-[6-[1-(1,6-dimethylpyrazolo[3,4-b]pyridin-4-yl)-4-piperidyl]-5-methyl-3-pyridyl]-3-methoxy-piperidin-4-amine] | 22 nM
COC[C@H]1CN(c2cnc(C3CCN(c4cc(C)nc5c4cnn5C)CC3)c(C)c2)CCN1 [Example 16, 4-[4-[5-[(3R)-3-(methoxymethyl)piperazin-1-yl]-3-methyl-2-pyridyl]-1-piperidyl]-1,6-dimethyl-pyrazolo[3,4-b]pyridine] | 23 nM
Cc1cc(N2CC[C@H](c3ccc(N4CC[C@@H](N)[C@H](F)C4)cn3)[C@@H](C)C2)c2cnn(C)c2n1 [Example 41, (3R,4R)-1-[6-[(3R,4S)-1-(1,6-dimethylpyrazolo[3,4-b]pyridin-4-yl)-3-methyl-4-piperidyl]-3-pyridyl]-3-fluoro-piperidin-4-amine] | 6 nM

The remaining compounds from weak to strong by IC50, led by results:

IC50 | Compound
49 nM | Cc1cc(N2CCC(c3ncc(N4CCNCC4)nc3C)[C@H](C)C2)c2cnn(C)c2n1 (single isomer, unassigned) [Example 22, 1,6-dimethyl-4-[cis-3-methyl-4-(3-methyl-5-piperazin-1-yl-pyrazin-2-yl)-1-piperidyl]pyrazolo[3,4-b]pyridine]
37 nM | Cc1cc(N2CCC(c3cnc(N4CCNCC4)nc3C)CC2)c2cnn(C)c2n1 [Example 11, 1,6-dimethyl-4-[4-(4-methyl-2-piperazin-1-yl-pyrimidin-5-yl)-1-piperidyl]pyrazolo[3,4-b]pyridine]
31 nM | Cc1cc(N2CCC(c3ncc(N4CCNCC4)cn3)CC2)c2cnn(C)c2n1 [Example 4, 1,6-dimethyl-4-[4-(5-piperazin-1-ylpyrimidin-2-yl)-1-piperidyl]pyrazolo[3,4-b]pyridine]
27 nM | Cc1cc(N2CCC(c3ccc(N4CCNCC4)cn3)CC2)c2cnn(C)c2n1 [Example 2, 1,6-dimethyl-4-[4-(5-piperazin-1-yl-2-pyridyl)-1-piperidyl]pyrazolo[3,4-b]pyridine]
24 nM | Cc1cc(N2CCC(c3ncc(N4CC[C@@H](N)[C@@H](F)C4)cc3C)CC2)c2cnn(C)c2n1 [Example 15, (3S,4R)-1-[6-[1-(1,6-dimethylpyrazolo[3,4-b]pyridin-4-yl)-4-piperidyl]-5-methyl-3-pyridyl]-3-fluoro-piperidin-4-amine]
20 nM | Cc1cc(N2CCC(c3cnc(N4CCNCC4)cn3)CC2)c2cnn(C)c2n1 [Example 3, 1,6-dimethyl-4-[4-(5-piperazin-1-ylpyrazin-2-yl)-1-piperidyl]pyrazolo[3,4-b]pyridine]
13 nM | Cc1cc(N2CC[C@H](c3ccc(N4CC5(CNCCO5)C4)cn3)[C@@H](C)C2)c2cnn(C)c2n1 [Example 38, 2-[6-[(3R,4S)-1-(1,6-dimethylpyrazolo[3,4-b]pyridin-4-yl)-3-methyl-4-piperidyl]-3-pyridyl]-5-oxa-2,8-diazaspiro[3.5]nonane]
11 nM | Cc1cc(N2CCC(c3ncc(N4CCNCC4)nc3C)[C@H](C)C2)c2cnn(C)c2n1 (single isomer, unassigned) [Example 23, 1,6-dimethyl-4-[trans-3-methyl-4-(3-methyl-5-piperazin-1-yl-pyrazin-2-yl)-1-piperidyl]pyrazolo[3,4-b]pyridine]
8 nM | Cc1cc(N2CCNCC2)cnc1C1CCN(c2ccnc3c2cnn3C)CC1 [Example 5, 1-methyl-4-[4-(3-methyl-5-piperazin-1-yl-2-pyridyl)-1-piperidyl]pyrazolo[3,4-b]pyridine]
